# Results as given in patent publication US20170217976A1, “6-(AMINO ACID)-MORPHINAN DERIVATIVES IN COMBINATION WITH PERMEATION […] FOR USE AS AN ORALLY, […], TRA[…] NASALLY AD[…]” (C[…], priority 2014, published 2017).
# Read-outs that look alike come from different tables or passages of the source.
# Key:
# DOR = target: T1, DOR (Rattus norvegicus, UniProt P33533); assay: Opioid receptor binding, DOR, rat brain membranes
# T1 construct: from tissue
# KOR = target: T2, KOR (Cavia porcellus, UniProt P41144); assay: Opioid receptor binding, KOR, guinea pig brain membranes
# T2 construct: from tissue
# T2 sequence (P41144 whole entry): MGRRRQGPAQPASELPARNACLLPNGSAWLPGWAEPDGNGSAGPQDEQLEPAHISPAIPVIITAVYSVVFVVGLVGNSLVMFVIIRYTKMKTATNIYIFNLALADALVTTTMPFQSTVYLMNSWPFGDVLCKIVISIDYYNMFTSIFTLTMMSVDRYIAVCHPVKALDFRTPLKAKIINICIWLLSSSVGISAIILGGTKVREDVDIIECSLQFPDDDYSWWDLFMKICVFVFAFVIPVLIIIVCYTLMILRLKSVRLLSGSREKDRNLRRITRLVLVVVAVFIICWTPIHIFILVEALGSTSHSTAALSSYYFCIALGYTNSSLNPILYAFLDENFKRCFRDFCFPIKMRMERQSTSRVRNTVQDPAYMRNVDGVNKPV
# MOR = target: T3, MOR (Rattus norvegicus, UniProt P33535); assay: Opioid receptor binding, MOR, rat brain membranes
# T3 construct: from tissue
# T3 sequence (P33535 whole entry): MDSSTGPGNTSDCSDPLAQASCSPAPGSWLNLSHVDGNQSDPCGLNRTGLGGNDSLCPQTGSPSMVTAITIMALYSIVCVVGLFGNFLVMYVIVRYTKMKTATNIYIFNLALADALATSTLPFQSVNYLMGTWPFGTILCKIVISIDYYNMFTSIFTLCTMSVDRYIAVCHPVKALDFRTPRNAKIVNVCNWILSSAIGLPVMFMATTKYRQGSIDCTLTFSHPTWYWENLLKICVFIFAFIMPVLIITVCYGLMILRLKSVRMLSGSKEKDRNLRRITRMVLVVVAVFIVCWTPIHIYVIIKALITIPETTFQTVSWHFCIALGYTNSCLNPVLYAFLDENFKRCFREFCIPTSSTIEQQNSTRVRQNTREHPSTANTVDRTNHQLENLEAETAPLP
# [1] = in vitro binding assay, rat brain membranes, read-out: Binding Ki (nM) DOR
# [2] = in vitro binding assay, guinea pig brain membranes, read-out: Binding Ki (nM) KOR
# [3] = in vitro binding assay, rat brain membranes, read-out: Binding Ki (nM) MOR
# [4] = Binding Ki (nM) DOR, in vitro binding assay, rat brain membranes
# [5] = Binding Ki (nM) KOR, in vitro binding assay, guinea pig brain membranes
# [6] = Binding Ki (nM) MOR, in vitro binding assay, rat brain membranes
# [7] = Binding Ki DOR, Table 2-6, rat brain membranes
# [8] = Binding Ki KOR, Table 2-6, guinea pig brain membranes
# [9] = Binding Ki MOR, Table 2-6, rat brain membranes
# T1 sequence (P33533 whole entry): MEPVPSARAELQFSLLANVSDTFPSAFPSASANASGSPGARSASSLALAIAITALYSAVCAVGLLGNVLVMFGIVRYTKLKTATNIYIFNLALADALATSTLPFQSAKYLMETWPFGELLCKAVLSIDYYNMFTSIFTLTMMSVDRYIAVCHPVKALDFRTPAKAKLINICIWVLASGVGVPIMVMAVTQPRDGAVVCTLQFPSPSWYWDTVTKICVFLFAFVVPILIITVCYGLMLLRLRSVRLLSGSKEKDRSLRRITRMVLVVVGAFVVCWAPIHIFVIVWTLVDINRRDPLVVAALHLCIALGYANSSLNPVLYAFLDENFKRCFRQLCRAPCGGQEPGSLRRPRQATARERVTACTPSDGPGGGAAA
Compound,Ki (DOR; [1]) [nM],Ki (KOR; [2]) [nM],Ki (MOR; [3]) [nM],Ki (DOR; [4]) [nM],Ki (KOR; [5]) [nM],Ki (MOR; [6]) [nM],also measured
CO[C@@]12CC[C@H](N[C@@H](CC(N)=O)C(=O)OC(C)(C)C)[C@@H]3Oc4c(O)ccc5c4[C@@]31CCN(C)[C@@H]2C5 [26-t-Bu ester],0.33,5.33,0.45,–,–,–,–
CO[C@@]12CC[C@@H](N[C@@H](CC(N)=O)C(=O)OC(C)(C)C)[C@@H]3Oc4c(O)ccc5c4[C@@]31CCN(C)[C@@H]2C5 [27-t-Bu ester],–,–,–,0.66,75.8,0.6,–
CO[C@@]12CC[C@H](N[C@H](C(=O)OC(C)(C)C)C(C)C)[C@@H]3Oc4c(O)ccc5c4[C@@]31CCN(C)[C@@H]2C5 [28-t-Bu ester],0.18,10.5,0.25,–,–,–,–
CO[C@@]12CC[C@@H](N[C@H](C(=O)OC(C)(C)C)C(C)C)[C@@H]3Oc4c(O)ccc5c4[C@@]31CCN(C)[C@@H]2C5 [29-t-Bu ester],–,–,–,0.86,214,1.03,–
CO[C@@]12CC[C@H](N[C@@H](C(=O)OC(C)(C)C)C(C)C)[C@@H]3Oc4c(O)ccc5c4[C@@]31CCN(C)[C@@H]2C5 [30-t-Bu ester],0.093,22.7,0.11,–,–,–,–
CO[C@@]12CC[C@@H](N[C@@H](C(=O)OC(C)(C)C)C(C)C)[C@@H]3Oc4c(O)ccc5c4[C@@]31CCN(C)[C@@H]2C5 [31-t-Bu ester],0.21,206,1.98,–,–,–,–
CO[C@@]12CC[C@H](N[C@H](C(=O)N[C@@H](Cc3ccc(O)cc3)C(=O)OC(C)(C)C)C(C)C)[C@@H]3Oc4c(O)ccc5c4[C@@]31CCN(C)[C@@H]2C5 [32-t-Bu ester],0.17,3.5,–,–,–,0.11,–
CO[C@@]12CC[C@H](N[C@H](C(=O)OC(C)(C)C)[C@@H](C)O)[C@@H]3Oc4c(O)ccc5c4[C@@]31CCN(C)[C@@H]2C5 [34-t-Bu ester],–,–,–,0.37,9.24,0.2,–
CO[C@@]12CC[C@@H](N[C@H](C(=O)OC(C)(C)C)[C@@H](C)O)[C@@H]3Oc4c(O)ccc5c4[C@@]31CCN(C)[C@@H]2C5 [35-t-Bu ester],–,–,–,0.65,102,0.51,–
CO[C@@]12CC[C@H](N[C@@H](CO)C(=O)OC(C)(C)C)[C@@H]3Oc4c(O)ccc5c4[C@@]31CCN(C)[C@@H]2C5 [36-t-Bu ester],–,–,–,0.17,6.2,0.2,–
CO[C@@]12CC[C@@H](N[C@@H](CO)C(=O)OC(C)(C)C)[C@@H]3Oc4c(O)ccc5c4[C@@]31CCN(C)[C@@H]2C5 [37-t-Bu ester],0.64,83.3,0.6,–,–,–,–
CO[C@@]12CC[C@H](N[C@@H](CCCCN)C(=O)OC(C)(C)C)[C@@H]3Oc4c(O)ccc5c4[C@@]31CCN(C)[C@@H]2C5 [38-t-Bu ester],0.092,0.89,0.17,–,–,–,–
CO[C@@]12CC[C@@H](N[C@@H](CCCCN)C(=O)OC(C)(C)C)[C@@H]3Oc4c(O)ccc5c4[C@@]31CCN(C)[C@@H]2C5 [39-t-Bu ester],0.88,21.4,0.58,–,–,–,–
CO[C@@]12CC[C@H](N[C@@H](CC(C)C)C(=O)OC(C)(C)C)[C@@H]3Oc4c(O)ccc5c4[C@@]31CCN(C)[C@@H]2C5 [40-t-Bu ester],–,–,–,0.13,8.07,0.087,–
CO[C@@]12CC[C@@H](N[C@@H](CC(C)C)C(=O)OC(C)(C)C)[C@@H]3Oc4c(O)ccc5c4[C@@]31CCN(C)[C@@H]2C5 [41-t-Bu ester],–,–,–,0.42,240,0.57,–
CO[C@@]12CC[C@@H](N[C@@H](Cc3c[nH]c4ccccc34)C(=O)OC(C)(C)C)[C@@H]3Oc4c(O)ccc5c4[C@@]31CCN(C)[C@@H]2C5 [46-t-Bu ester],0.36,9.89,0.26,–,–,–,–
CCO[C@@]12CC[C@H](N[C@@H](Cc3ccccc3)C(=O)OC(C)(C)C)[C@@H]3Oc4c(O)ccc5c4[C@@]31CCN(CC1CC1)[C@@H]2C5 [55-tBu ester],–,–,–,–,–,–,Ki (DOR; [7]): 2.38 nM; Ki (KOR; [8]): 4.12 nM; Ki (MOR; [9]): 0.63 nM
CCO[C@@]12CC[C@@H](N[C@@H](Cc3ccccc3)C(=O)OC(C)(C)C)[C@@H]3Oc4c(O)ccc5c4[C@@]31CCN(CC1CC1)[C@@H]2C5 [56-tBu ester],–,–,–,–,–,–,Ki (DOR; [7]): 6.33 nM; Ki (KOR; [8]): 17.9 nM; Ki (MOR; [9]): 2 nM
CO[C@@]12CC[C@H](N[C@@H](Cc3ccccc3)C(=O)OC(C)(C)C)[C@@H]3Oc4c(O)ccc5c4[C@@]31CCN(CC1CC1)[C@@H]2C5 [57-tBu ester],–,–,–,–,–,–,Ki (DOR; [7]): 0.58 nM; Ki (KOR; [8]): 1.78 nM; Ki (MOR; [9]): 0.68 nM
CO[C@@]12CC[C@@H](N[C@@H](Cc3ccccc3)C(=O)OC(C)(C)C)[C@@H]3Oc4c(O)ccc5c4[C@@]31CCN(CC1CC1)[C@@H]2C5 [58-tBu ester],–,–,–,–,–,–,Ki (DOR; [7]): 4.56 nM; Ki (KOR; [8]): 13.1 nM; Ki (MOR; [9]): 2.41 nM
